Test results as given in US20210220331A1, “INHIBITORS OF IRES-MEDIATED PROTEIN SYNTHESIS” (The Regents of the University of California, priority 2016, published 2021).

Key:
[1] = biological target: T1, hnRNP A1 binding to cyclin D1 or c-MYC IRES RNAs (Homo sapiens, UniProt P09651); assay: RNA-pull down assay with biotinylated cyclin D1 or c-MYC IRES RNAs; type: cell-based
T1 construct: endogenous in cells; host or cells: LN229 glioblastoma cells; 293T cells
Experimental: For immunopurification of eIF4E and bound RNA (21), cells were lysed in buffer containing 50 mM Tris-HCl (pH 7.4), 300 mM NaCl, 0.5% NP-40, 10 mM NaF, 1 mM sodium orthovanidate, 1 mM PMSF, 1.5% aprotinin and SUPERase-IN (ThermoFisher Scientific), 0.025 units/ml, using a Dounce homogenizer at 4° C. Extracts were cleared by centrifugation and immunoprecipitated with eIF4E or control IgG. Beads were washed and obtained RNA was subjected to quantitative RTPCR. For quantitative RT-PCR, extraction of RNA was performed using Trizol (ThermoFisher). Total RNA was then quantified and integrity assessed using an Agilent 2100 Bioanalyzer (Agilent Technology). Total RNA was reverse transcribed with random primers using the RETROscript Kit from ThermoFisher. SYBR Green quantitative PCR was performed in triplicate in 96-well optical plates on an ABI Prism 7000 Sequence Detection System (Life Technologies) according to the manufacturer's instructions. Primer sequences for CCND1, c-MYC and actin are available upon request. […]
(B) Schematic diagrams of the dicistronic constructs used in this study. […] Input and bound fractions were analyzed by immunoblotting using hnRNP A1 antibodies. […] Bound CCND1 or c-MYC RNAs were detected via RT-PCR. […]

LN229 cells = assay: Combination analysis with PP242 (XTT, combination index) in LN229; type: cell-based; settings: combination of PP242 and analog, CI=1.0 dose additive, CI<0.5 synergy, CI<0.3 strong synergy
Excerpt: Fold decrease in either PP242-induced cyclin D1 or c-MYC IRES activity in LN229 relative to values obtained with the parent compound C11 are shown for each analog. […] CI=1.0 (dose additive), CI<0.5 (synergy), CI<0.3 (strong synergy).
The structure-activity relationships (SAR) for C11 and related compounds were investigated by synthesizing and testing the analogs listed in Table 1. […] The degree of apoptotic cell death following co-treatment with analog and PP242 was also monitored.

T1 sequence (P09651 whole entry): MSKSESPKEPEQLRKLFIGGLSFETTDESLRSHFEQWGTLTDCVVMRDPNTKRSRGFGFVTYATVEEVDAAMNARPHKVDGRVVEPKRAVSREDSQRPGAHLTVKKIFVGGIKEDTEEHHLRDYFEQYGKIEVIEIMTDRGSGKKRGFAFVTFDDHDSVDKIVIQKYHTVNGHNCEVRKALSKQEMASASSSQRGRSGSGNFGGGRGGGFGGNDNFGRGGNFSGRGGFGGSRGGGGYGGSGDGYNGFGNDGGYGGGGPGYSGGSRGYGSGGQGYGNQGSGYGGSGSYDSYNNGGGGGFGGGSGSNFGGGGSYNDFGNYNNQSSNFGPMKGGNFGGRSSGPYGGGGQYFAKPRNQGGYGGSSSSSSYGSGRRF

Structure (SMILES)	ability to block cyclin D1 or c-MYC IRES-hnRNP A1 interactions relative to C11 ([1]; 293T cell extracts)	CI ED50, 1:100 (combination index) (LN229 cells)	hnRNP A1 binding to cyclin D1 or c-MYC IRES RNAs ([1]; extracts of LN229 cells treated with 50 nM)
COc1ccc(CN2C(=O)c3ccccc3C2=O)c(OC)c1 [IRES-J007, 2-((2,4-Dimethoxyphenyl)methyl)isoindoline-1,3-dione]	improved ability	0.42	
COc1ccc(CN2C(=O)C(Cl)=C(Cl)C2=O)c(OC)c1 [Compound C11, reference compound]		0.50	markedly reduced hnRNP A1 binding
